In ChEMBL document CHEMBL1128117, “Dibenzobicyclo[2.2.2.]octane angiotensin II receptor antagonists” (Bioorg Med Chem Lett, 1995):

What follows are compounds tested against T1, Angiotensin II receptor (Homo sapiens, UniProt P30556+P50052) (assay: Inhibitory activity against Angiotensin II receptor).
T1 sequence (P30556 whole entry): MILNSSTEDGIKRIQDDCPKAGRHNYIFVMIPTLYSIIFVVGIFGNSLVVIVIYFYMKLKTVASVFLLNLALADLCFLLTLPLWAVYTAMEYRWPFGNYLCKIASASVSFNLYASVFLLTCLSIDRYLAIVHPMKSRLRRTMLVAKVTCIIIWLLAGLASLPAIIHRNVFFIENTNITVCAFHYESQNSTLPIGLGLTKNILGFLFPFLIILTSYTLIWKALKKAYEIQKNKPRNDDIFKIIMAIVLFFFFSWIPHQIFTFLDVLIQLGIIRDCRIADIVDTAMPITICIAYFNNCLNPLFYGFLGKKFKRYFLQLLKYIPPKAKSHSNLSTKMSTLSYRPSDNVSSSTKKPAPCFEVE
T1 sequence (P50052 whole entry): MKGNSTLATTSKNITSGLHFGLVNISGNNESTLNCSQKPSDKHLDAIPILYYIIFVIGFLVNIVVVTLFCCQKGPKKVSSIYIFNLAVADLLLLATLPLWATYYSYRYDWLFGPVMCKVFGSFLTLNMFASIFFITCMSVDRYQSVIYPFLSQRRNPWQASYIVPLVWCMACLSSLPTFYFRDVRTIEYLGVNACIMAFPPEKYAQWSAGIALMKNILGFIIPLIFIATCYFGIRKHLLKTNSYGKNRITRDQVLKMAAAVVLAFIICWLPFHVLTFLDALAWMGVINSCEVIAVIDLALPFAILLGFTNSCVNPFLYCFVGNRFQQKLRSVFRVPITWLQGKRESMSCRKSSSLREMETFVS
Assay type: protein assay

`CCCCc1nc(Cl)c(C=O)n1Cc1ccc2c(c1)C(O)(C(=O)O)c1ccccc1-2` (stereo not drawn) gave an IC50 of over 10000 nM.

`CCCCc1nc(Cl)c(C=O)n1Cc1ccc2c(c1)C(C(=O)O)c1ccccc1-2` (stereo not drawn) and `CCCCc1nc(Cl)c(C=O)n1Cc1ccc2c(c1)C(Cc1nn[nH]n1)c1ccccc1-2` (stereo not drawn) are within 1.5-fold of each other in IC50: 3600 nM for the first, 5000 nM for the second.

First: CCCCc1nc(Cl)c(C=O)n1Cc1ccc2c(c1)C1c3ccccc3C2C(C(=O)O)C1C(=O)O (stereo in doubt; 3)
Second: CCCCc1nc(Cl)c(C=O)n1Cc1ccc2c(c1)C1c3ccccc3C2C(c2nn[nH]n2)C1c1nn[nH]n1 (stereo not drawn)
The IC50 of the first is 12-fold higher: 1100 nM for the first, 90 nM for the second.

`CCCCc1nc(Cl)c(C=O)n1Cc1ccc2c(c1)C1c3ccccc3C2C(C(=O)O)C1C(=O)O` (single isomer, unassigned) and `CCCCc1nc(Sc2ccccc2)c(C=O)n1Cc1ccc2c(c1)C1c3ccccc3C2C(c2nn[nH]n2)C1c1nn[nH]n1` (stereo not drawn) are within 1.5-fold of each other in IC50: 320 nM for the first, 460 nM for the second.

For `CCCCc1nc(Cl)c(C=O)n1Cc1ccc2c(c1)C1c3ccccc3C2C(C(=O)O)C1C(=O)O` (stereo in doubt), the IC50 was 1100 nM.
In the case of `CCCCc1nc(Cl)c(C=O)n1Cc1ccc2c(c1)C1c3ccccc3C2C(C(=O)O)C1C(=O)O` (stereo in doubt; 5), the IC50 is reported as 220 nM.

Each compound was assayed on Rattus norvegicus (assay: Dose required to lower the blood pressure by 30 mm Hg on intravenous administration in the renal hypertensive rat; orally inactive).
Assay type: functional

First: CCCCc1nc(Cl)c(C=O)n1Cc1ccc2c(c1)C1c3ccccc3C2C(c2nn[nH]n2)C1c1nn[nH]n1 (stereo not drawn)
Second: CCCCc1nc(Sc2ccccc2)c(C=O)n1Cc1ccc2c(c1)C1c3ccccc3C2C(c2nn[nH]n2)C1c1nn[nH]n1 (stereo not drawn)
The ED30 of the first is 1.7-fold lower: 0.115 mg/kg for the first, 0.2 mg/kg for the second.

What follows are compounds tested on Rattus norvegicus (assay: Dose required to lower the blood pressure by 30 mm Hg on intravenous administration in the renal hypertensive rat was determined).
Assay type: functional

Compound `CCCCc1nc(Cl)c(CO)n1Cc1ccc(-c2ccccc2-c2nnn[nH]2)cc1` [LOSARTAN] has an ED30 of 0.8 mg/kg.

What follows are compounds tested against T1, Angiotensin II receptor (assay: Inhibitory activity against Angiotensin II receptor was determined).
Assay type: protein assay

With `CCCCc1nc(Cl)c(COC)n1Cc1ccc(N2C(=O)C3(C)CC(C)(C(=O)O)CC(C)(C3)C2=O)cc1` (stereo not drawn) the IC50 was over 10000 nM.
